Biological target: T1, ERα (Homo sapiens, UniProt P03372)
T1 construct: endogenous in cells; host or cells: MCF-7
T1 sequence (P03372 1-595): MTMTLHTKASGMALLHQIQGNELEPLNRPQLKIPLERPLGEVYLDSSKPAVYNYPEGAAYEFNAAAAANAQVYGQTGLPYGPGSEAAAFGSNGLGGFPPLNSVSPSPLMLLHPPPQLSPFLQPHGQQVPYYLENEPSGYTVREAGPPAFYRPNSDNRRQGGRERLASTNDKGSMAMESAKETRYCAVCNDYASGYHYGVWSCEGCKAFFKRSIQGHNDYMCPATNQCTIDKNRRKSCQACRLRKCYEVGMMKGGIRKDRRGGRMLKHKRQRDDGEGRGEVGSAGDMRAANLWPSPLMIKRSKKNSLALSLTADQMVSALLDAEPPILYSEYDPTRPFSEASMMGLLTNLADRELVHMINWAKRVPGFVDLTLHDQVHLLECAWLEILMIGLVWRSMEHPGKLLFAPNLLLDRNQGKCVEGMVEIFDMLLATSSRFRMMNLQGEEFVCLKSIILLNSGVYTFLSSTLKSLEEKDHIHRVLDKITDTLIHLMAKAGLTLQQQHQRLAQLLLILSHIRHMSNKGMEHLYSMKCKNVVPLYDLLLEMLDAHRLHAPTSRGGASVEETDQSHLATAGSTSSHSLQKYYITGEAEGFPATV
Assay: MCF-7 ERα degradation experiment (Human Total ERα ELISA, 4 h incubation)
Format: cell-based
Conditions: MCF-7 cells, 4 h incubation at 37° C., ERα by ELISA; Max well 100 nM FUL, Min well 0.5% DMSO; read-out: Degradation of ERα by compounds DC50
Experimental: Experimental Example 1: MCF-7 ERα Degradation Experiment
Compounds were tested for their ability to degrade ERα receptors under experimental conditions.
Phenol red-free MEM medium was purchased from Wisent, fetal bovine serum was purchased from Biosera, and Human Total ERα/NR3A1 ELISA kits were purchased from R&D. MCF-7 cell line was purchased from the Cell Bank of Type Culture Collection Committee of the Chinese Academy of Sciences. Nivo5 multi-marker analyzer (PerkinElmer).
• 1. MCF-7 cells were resuspended in medium (phenol red-free MEM+5% Charcoal Dextran Stripped FBS+1% PS), seeded in a 96-well clear cell culture plate, and incubated overnight in a carbon dioxide incubator; • 2. ELISA plate was coated with stripes, Human Total ERα Capture Antibody was diluted with 1×PBS, and the plate was incubated at 25° C. overnight. Day Two: • 1. Cell administration: The compounds to be tested were diluted to the 8th concentration. The concentration of the compound was 20 μM, and the compound was diluted successively to the 8th concentration of 0.256 nM at 4 μM. Two duplicate wells were set. The compound was transferred to the intermediate plate and then to the cell plate to give a final DMSO concentration of 0.5% per well, and the plate was incubated at 37° C. for 4 h; • 2. preparation of standard curve solution: 110 ng/mL of standard curve stock solution was 6-fold diluted with buffer #8 to give a solution with a concentration of 18.3 ng/mL. Then, 8-point gradient dilution was performed using buffer #3 with a final concentration of 200 pg/mL to 1.56 pg/mL; • 3. the ELISA plate was washed 3 times with a washing solution (1×PBS containing 0.05% Tween); • 4. 300 μL of blocking solution (1×PBS containing 1% BSA) was added to each well, and the plate was incubated at 25° C. for 2 h; • 5. 1×PBS was pre-cooled. After the incubation of the compound, the supernatant was removed, the plate was washed with pre-cooled 1×PBS, the cell lysate was added, and the cells were lysed on ice for 15 min; • 6. the blocking solution was removed from the ELISA plate, the plate was washed, and step 3 was repeated; • 7. after the cells were lysed, in the cell plate, the cell lysate was 6-fold diluted with 150 μL of buffer #8 per well, the mixture was pipetted and mixed well, and 100 μL of solution per well was transferred to the ELISA plate; • 8. at the same time, 100 μL of Standard per well was transferred to the ELISA plate and incubated overnight at 25° C. Day Three: • 1. The supernatant was removed, and the plate was washed 3 times with a washing solution; • 2. Human Total ERα Detection Antibody stock solution ([…]) was 36-fold diluted with buffer #1 (1×PBS containing 1% BSA), and the final concentration of Detection Antibody was 400 ng/mL. 100 μL/well of the solution was transferred to the ELISA plate, and the plate was incubated at 25° C. for 2 h; • 3. the plate was washed with buffer #1; • 4. Streptavidin-HRP A was 200-fold diluted with buffer #1 (1×PBS containing 1% BSA), 100 μL/well of the solution was transferred to the ELISA plate, and the plate was incubated at 25° C. for 20 min; • 5. the plate was washed with buffer #1; • 6. 100 μL of Substrate Solution per well (1:1 mixture of reagent A (H2O2) and reagent B (tetramethylbenzidine)) was added to the ELISA plate, and the plate was incubated at 25° C. for 20 min; • 7. […] of stop solution was added and the OD450 absorbance was read on a plate reader. Data Analysis: […]

DC50 [nM]	Structure (SMILES)
0.84	O=C1CCC(N2Cc3cc(N4CCN(CCCCCOc5ccc(C6=C(c7ccccc7)CCCc7cc(O)ccc76)cc5)CC4)ccc3C2=O)C(=O)N1 (centres unmarked) [Compound 1]
2.69	O=C1CCC(N2Cc3cc(N4CCN(CC5CCN(c6ccc(C7=C(c8ccccc8)CCCc8cc(O)ccc87)cc6)CC5)CC4)ccc3C2=O)C(=O)N1 (centres unmarked) [Compound 2]
5.8	O=C1CCC(N2Cc3cc(N4CCN(CC5CCN(c6ccc(C7=C(c8ccc(Cl)cc8Cl)CCCc8cc(C(=O)O)ccc87)cc6)CC5)CC4)ccc3C2=O)C(=O)N1 (centres unmarked) [Compound 3]
1.5	O=C1CC[C@H](N2Cc3cc(N4CCN(CCC5CCN(c6ccc(C7=C(c8ccccc8)CCCc8cc(O)ccc87)cc6)CC5)CC4)ccc3C2=O)C(=O)N1 [Compound 4]
1.8	O=C1CC[C@H](N2Cc3cc(N4CCN(CC5CCN(c6ccc(C7=C(c8ccc(Cl)cc8)CCCc8cc(O)ccc87)cc6)CC5)CC4)ccc3C2=O)C(=O)N1 [Compound 5]
1	O=C1CC[C@H](N2Cc3cc(N4CCN(CC5CCN(c6ccc(C7=C(c8ccc(F)cc8)CCCc8cc(O)ccc87)cc6)CC5)CC4)ccc3C2=O)C(=O)N1 [Compound 6]
8	COc1ccc2c(c1)CCCC(c1ccccc1)=C2c1ccc(N2CCC(CN3CCN(c4ccc5c(c4)CN([C@H]4CCC(=O)NC4=O)C5=O)CC3)CC2)cc1 [Compound 7]
8.3	COc1ccc2c(c1)CCCC(c1ccc(F)cc1)=C2c1ccc(N2CCC(CN3CCN(c4ccc5c(c4)CN([C@H]4CCC(=O)NC4=O)C5=O)CC3)CC2)cc1 [Compound 8]
0.4	O=C1CC[C@H](N2Cc3cc(N4CCN(CC5CCN(c6ccc(C7=C(c8ccc(O)cc8)CCCc8cc(O)ccc87)cc6)CC5)CC4)ccc3C2=O)C(=O)N1 [Compound 9]
5.7	COc1ccc2c(c1)OCCC(c1ccccc1)=C2c1ccc(N2CCC(CN3CCN(c4ccc5c(c4)CN([C@H]4CCC(=O)NC4=O)C5=O)CC3)CC2)cc1 [Compound 10]
1	Cc1ccc(C2=C(c3ccc(N4CCC(CN5CCN(c6ccc7c(c6)CN([C@H]6CCC(=O)NC6=O)C7=O)CC5)CC4)cc3)c3ccc(O)cc3CCC2)cc1 [Compound 11]
4.73	O=C1CC[C@H](N2Cc3cc(N4CCN(CC5CCN(c6ccc(C7=C(c8ccccc8)CCCc8cc(C(=O)O)ccc87)cc6)CC5)CC4)ccc3C2=O)C(=O)N1 [Compound 12]
4.47	O=C1CC[C@H](N2Cc3cc(N4CCN(CCC5CCN(c6ccc(C7=C(c8ccccc8)CCCc8cc(C(=O)O)ccc87)cc6)CC5)CC4)ccc3C2=O)C(=O)N1 [Compound 13]
1.1	O=C1CC[C@H](N2Cc3cc(N4CCN(CC5CCN(c6ccc(C7=C(c8ccccc8)CCCc8cc(O)ccc87)cc6)CC5)CC4)ccc3C2=O)C(=O)N1 [Compound 14]
1.7	O=C1CC[C@H](N2Cc3cc(N4CCN(CC5CCN(c6ccc(C7=C(c8ccc(C(F)(F)F)nc8)CCCc8cc(O)ccc87)cc6)CC5)CC4)ccc3C2=O)C(=O)N1 [Compound 15]
7.7	Cc1ccc(C2=C(c3ccc(N4CCC(CN5CCN(c6ccc7c(c6)CN([C@H]6CCC(=O)NC6=O)C7=O)CC5)CC4)cc3)c3ccc(O)cc3CCC2)cn1 [Compound 16]
9.4	O=C1CC[C@H](N2Cc3cc(N4CCN(CC5CCN(c6ccc(C7=C(c8ccc(C9CC9)nc8)CCCc8cc(O)ccc87)cc6)CC5)CC4)ccc3C2=O)C(=O)N1 [Compound 17]
4.6	Cc1nn(C)cc1C1=C(c2ccc(N3CCC(CN4CCN(c5ccc6c(c5)CN([C@H]5CCC(=O)NC5=O)C6=O)CC4)CC3)cc2)c2ccc(O)cc2CCC1 [Compound 18]
2.1	O=C1CC[C@H](N2Cc3cc(N4CCN(CC5CCN(c6ccc(C7=C(c8ccc(F)nc8)CCCc8cc(O)ccc87)cc6)CC5)CC4)ccc3C2=O)C(=O)N1 [Compound 19]
0.9	O=C1CC[C@H](N2Cc3cc(N4CCN(CC5CCN(c6ccc(C7=C(c8ccncc8)CCCc8cc(O)ccc87)cc6)CC5)CC4)ccc3C2=O)C(=O)N1 [Compound 20]
1.9	O=C1CC[C@H](N2Cc3cc(N4CCN(CC5CCN(c6ccc(C7=C(c8cccnc8)CCCc8cc(O)ccc87)cc6)CC5)CC4)ccc3C2=O)C(=O)N1 [Compound 21]
2.4	Cc1ccc(C2=C(c3ccc(N4CCC(CN5CCN(c6ccc7c(c6)CN([C@H]6CCC(=O)NC6=O)C7=O)CC5)CC4)cc3)c3ccc(O)cc3CCC2)c(C)n1 [Compound 22]
1.4	CC(C)(O)c1ccc(C2=C(c3ccc(N4CCC(CN5CCN(c6ccc7c(c6)CN([C@H]6CCC(=O)NC6=O)C7=O)CC5)CC4)cc3)c3ccc(O)cc3CCC2)cn1 [Compound 23]
0.7	O=C1CC[C@H](N2Cc3cc(N4CCN(CC5CCN(c6ccc(C7=C(c8ccc(OC(F)F)cc8)CCCc8cc(O)ccc87)cc6)CC5)CC4)ccc3C2=O)C(=O)N1 [Compound 24]
5.7	O=C1CC[C@H](N2Cc3cc(N4CCN(CC5CCN(c6ccc(C7=C(c8ccc(OC(F)(F)F)cc8)CCCc8cc(O)ccc87)cc6)CC5)CC4)ccc3C2=O)C(=O)N1 [Compound 25]
1.7	O=C1CC[C@H](N2Cc3cc(N4CCN(CC5CCN(c6ccc(C7=C(c8ccc(OC9CC9)cc8)CCCc8cc(O)ccc87)cc6)CC5)CC4)ccc3C2=O)C(=O)N1 [Compound 26]

Source: patent US12655135B2, “Benzo seven-membered ring bifunctional compound and application thereof” (CHIA TAI TIANQING PHARMACEUTICAL GROUP CO., LTD., priority 2021, dated 2026)
